Test results taken from patent US8101389B2, “Bacterial glutamine synthetases and methods of use” (Athenix Corp, priority 2006, dated 2012).

What was measured:
[1] = test system: E. coli cells with AGS1 variant AGS1m2 (pAX3422), F81S, P185S, G218S, I303N, SEQ ID NO:6; assay: growth of E. coli on herbicide plates, ags1m2; format: cell-based; details: 200 mM glufosinate
Method: Mutants of the bacterial glutamine synthetase gene ags1 (SEQ ID NO:1) were created by error-prone mutagenesis using the GENEMORPH® Random Mutagenesis kit, and also using oligo-directed mutagenesis as known in the art. However, many methods are available for creating libraries of mutants. The resulting mutants were cloned into a pUC19 vector, electroporated into either XL-1 or DH5 alpha E. coli cells, and selected for growth on M63+ agar media containing antibiotic and 2, 10, or 20 mM glufosinate. Twenty-two clones were identified as growing on 20 mM glufosinate, and picked for further analysis.
ags1m2 was mutagenized by error-prone mutagenesis using GENEMORPH® II Random Mutagenesis kit (Stratagene) according to manufacturer's instructions. Mutagenized PCR product was digested with Sac I and Hind III, and ligated into a pUC vector, similarly digested with Sac I and Hind III. Ligations were transformed into E. coli cells, and plated onto M63+ plates containing antibiotic, and 125 mM glufosinate. Clones growing on 125 mM glufosinate plates were retested on 200 mM glufosinate plates, and compared to similar platings of ags1m1 and ags1m2. […] The DNA sequence of the ags open reading frame in pAX3439 was sequenced, and the gene designated as ags1m16. The DNA sequence of ags1m16 is represented herein as SEQ ID NO:31, and the amino acid sequence is represented herein as SEQ ID NO:32. […]

[2] = test system: E. coli cells with AGS1 variant AGS1m18, F81S, P185S, H212T, V214S, G218S, I303N, SEQ ID NO:36; assay: growth of E. coli on glufosinate plates, ags1m18; format: cell-based
Method: (§1) Clones expressing AGS1m17, AGS1m18, AGS1m19, or AGS1m20 were all found to be able to grow on plates containing 375 mM glufosinate, whereas no growth of clones expressing AGS1m16 was observed on plates containing 375 mM glufosinate.

[3] = target: Serratia marcescens glutamine synthetase AGS1 variant AGS1(AD-), tyrosine 398 to phenylalanine, SEQ ID NO:44 (Serratia marcescens, UniProt A0A0F6KS08, Y398F); assay: enzymatic assay, kinetics of AGS1(AD-); format: biochemical
Method: ags1(ad-) (SEQ ID NO:43) encoding the AGS1(AD-) protein (SEQ ID NO:44), is a variant of ags1 in which the putative adenylylation site has been removed by mutating the tyrosine at position 398 of AGS1 to a phenylalanine by site directed mutagenesis.
The unmodified enzyme (AGS1) was compared to AGS1(AD-) and AGS1m17(AD-) by carrying out enzymatic assays on both enzymes following purification from E. coli. A glutamine synthetase enzyme from E. coli (GlnA) was also tested.

[4] = test system: E. coli cells with AGS1 variant AGS1m17, F81S, P185S, H212T, V214A, G218S, I303N, SEQ ID NO:34; assay: growth of E. coli on glufosinate plates, ags1m17; format: cell-based
Method: as §1

[5] = test system: ags1 glutamine synthetase enzyme; assay: Enzymatic activity of purified 6Xhis-tagged glutamine synthetases with and without glufosinate; format: biochemical, Serratia marcescens; details: 100 uM glufosinate
Text: (§2) ags1m1 (pAX3421) and ags1m2 (pAX3422) were subcloned into E. coli expression vector pRSF1B (Invitrogen) so as to create an N-terminus encoding a 6Xhis tag, purified and characterized kinetically.

[6] = test system: E. coli cells with AGS1 variant AGS1m19, F81S, P185S, H212S, V214A, G218S, I303N, SEQ ID NO:38; assay: growth of E. coli on glufosinate plates, ags1m19; format: cell-based
Method: as §1

[7] = target: Serratia marcescens glutamine synthetase AGS1 variant AGS1m1 (pAX3421), V39I, V214M, SEQ ID NO:4 (Serratia marcescens, UniProt A0A0F6KS08, V214M/V39I); assay: enzymatic assay of purified 6Xhis AGS1m1 with glufosinate; format: biochemical; details: 100 uM glufosinate
Text: as §2

[8] = test system: Serratia marcescens ATX 20345; assay: growth of strain ATX 20345 in glufosinate; format: cell-based; details: minimal medium; growth above 50 mM was not tested
Method: A glufosinate resistant bacterial strain (ATX 20345) was isolated from a soil sample via a soil suspension by placing approximately 0.01 grams soil in 500 μl sterile water. The soil suspension was vortexed, and 20 μl was used to inoculate a 2.5 ml minimal medium culture supplemented with 5 mM glufosinate (Riedel-de Habël, available through Sigma-Aldrich, St. Louis, Mo.). The minimal medium contains the following ingredients (per 1 liter): 10 grams sucrose, 1 ml 0.8M MgSO4, 1 ml 0.1M CaCl2, 1 ml trace elements, 2.38 grams KH2PO4, 5.64 grams K2HPO4. The pH is adjusted to 7.0, and the solution is sterilized with a 0.2 μm filter. Trace elements consist of (per 100 ml) 0.1 g FeSO4.7H2O, 0.5 mg CuSO4.5H2O, 1.0 mg H3BO3, 1.0 mg MnSO4.5H2O, 7.0 mg ZnSO4.7H2O, 1.0 mg MoO3, 4.0 g KCl. No additional nitrogen source was provided in the medium. Cultures were grown at 21° C. on a rotary shaker for 3 days then transferred to fresh minimal medium containing 5 mM glufosinate and incubated at 21° C. After 2 days, the cultures were used to inoculate fresh minimal medium with 5 mM glufosinate. After 2 days, the cultures were plated onto Luria Bertani (LB) agar and then restruck for isolation. […] Colonies on LB agar are pinkish-red, raised, circular, and 1-2 mm in diameter. ATX20345 was typed by fatty acid analysis (as known in the art), and determined to be a strain of Serratia marcescens. […]

[9] = target: Serratia marcescens glutamine synthetase AGS1 variant AGS1m21, N160S, G167R, V214M, SEQ ID NO:42 (Serratia marcescens, UniProt A0A0F6KS08, G167R/N160S/V214M); assay: enzymatic assay, kinetics of AGS1m21; format: biochemical
Text: ags1m21 (SEQ ID NO:41) encodes the AGS1m21 protein (SEQ ID NO:42). AGS1m21 is a variant of AGS1 that contains a similar amino acid change identified in other variants (V214M), as well as two novel mutations (N160S and G167R). This enzyme was expressed in E. coli, purified, and the kinetic values Km(glutamate) and Ki(glufosinate) of the variant measured by enzymatic assay.

Serratia marcescens glutamine synthetase AGS1 variant AGS1(AD-), tyrosine 398 to phenylalanine, SEQ ID NO:44, sequence (A0A0F6KS08 whole entry Y398F): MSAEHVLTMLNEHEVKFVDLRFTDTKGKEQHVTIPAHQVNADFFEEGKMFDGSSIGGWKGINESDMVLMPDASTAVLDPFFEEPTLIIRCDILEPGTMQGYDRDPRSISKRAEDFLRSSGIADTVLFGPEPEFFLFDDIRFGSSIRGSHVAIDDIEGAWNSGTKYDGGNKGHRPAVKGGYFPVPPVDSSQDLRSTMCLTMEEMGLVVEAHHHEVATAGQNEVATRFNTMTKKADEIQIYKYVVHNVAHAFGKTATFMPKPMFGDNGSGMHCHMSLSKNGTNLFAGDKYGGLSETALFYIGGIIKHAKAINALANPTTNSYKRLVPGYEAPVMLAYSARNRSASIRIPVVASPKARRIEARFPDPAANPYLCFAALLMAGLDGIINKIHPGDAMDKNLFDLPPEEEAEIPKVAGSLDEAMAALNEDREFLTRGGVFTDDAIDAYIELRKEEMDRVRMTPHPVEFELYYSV
Serratia marcescens glutamine synthetase AGS1 variant AGS1m1 (pAX3421), V39I, V214M, SEQ ID NO:4, sequence (A0A0F6KS08 whole entry V39I/V214M): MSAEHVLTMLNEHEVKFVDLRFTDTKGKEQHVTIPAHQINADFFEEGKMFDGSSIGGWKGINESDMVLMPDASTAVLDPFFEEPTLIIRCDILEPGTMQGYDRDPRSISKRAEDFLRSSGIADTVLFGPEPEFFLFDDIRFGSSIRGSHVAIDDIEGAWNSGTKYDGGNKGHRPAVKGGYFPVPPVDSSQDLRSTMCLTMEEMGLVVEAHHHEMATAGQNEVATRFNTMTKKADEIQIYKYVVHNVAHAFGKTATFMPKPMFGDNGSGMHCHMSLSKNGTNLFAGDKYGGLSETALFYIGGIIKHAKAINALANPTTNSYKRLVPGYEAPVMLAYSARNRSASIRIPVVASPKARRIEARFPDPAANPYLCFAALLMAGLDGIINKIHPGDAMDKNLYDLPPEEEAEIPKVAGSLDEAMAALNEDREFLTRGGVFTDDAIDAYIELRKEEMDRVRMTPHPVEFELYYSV
Serratia marcescens glutamine synthetase AGS1 variant AGS1m21, N160S, G167R, V214M, SEQ ID NO:42, sequence (A0A0F6KS08 whole entry N160S/G167R/V214M): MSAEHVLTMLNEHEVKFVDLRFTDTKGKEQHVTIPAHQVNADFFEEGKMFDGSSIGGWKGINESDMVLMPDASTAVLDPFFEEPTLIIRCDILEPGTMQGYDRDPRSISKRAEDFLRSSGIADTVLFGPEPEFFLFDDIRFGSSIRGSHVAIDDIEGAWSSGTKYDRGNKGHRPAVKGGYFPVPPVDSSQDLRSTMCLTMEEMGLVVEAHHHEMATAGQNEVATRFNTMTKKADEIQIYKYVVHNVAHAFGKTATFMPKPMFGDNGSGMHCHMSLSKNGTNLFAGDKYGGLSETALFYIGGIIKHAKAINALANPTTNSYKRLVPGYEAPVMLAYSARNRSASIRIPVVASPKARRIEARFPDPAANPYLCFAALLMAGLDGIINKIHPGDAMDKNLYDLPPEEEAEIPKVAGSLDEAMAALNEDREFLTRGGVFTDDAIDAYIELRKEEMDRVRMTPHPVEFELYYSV

## CP(=O)(O)CCC(N)C(=O)O (stereo not shown) [glufosinate]
[1]
  growth on 200 mM glufosinate plates: did not grow
[2]
  growth on plates containing 375 mM glufosinate: able to grow
[3]
  Ki: 13 µM
[3]; Table 5, Km glutamate, Ki glufosinate
  (Kcat*Ki)/Km: 12.59
[4]
  growth on plates containing 375 mM glufosinate: able to grow
[5]
  inhibition of wild type ags1 glutamine synthetase enzyme: completely inhibited
[6]
  growth on plates containing 375 mM glufosinate: able to grow
[7]
  activity in the presence of glufosinate: showed activity
[8]
  glufosinate concentration through which ATX 20345 grows well: ≥ 50 mM
[9]
  Ki: 2000 µM
